Experimental data published in US4304679A, “Detergent product containing deodorant compositions” (priority 1978, dated 1981).

Molecular target: T1, lipoxidase (ECl.13.1.13) (Glycine max, UniProt P08170)
T1 sequence (P08170 1-839): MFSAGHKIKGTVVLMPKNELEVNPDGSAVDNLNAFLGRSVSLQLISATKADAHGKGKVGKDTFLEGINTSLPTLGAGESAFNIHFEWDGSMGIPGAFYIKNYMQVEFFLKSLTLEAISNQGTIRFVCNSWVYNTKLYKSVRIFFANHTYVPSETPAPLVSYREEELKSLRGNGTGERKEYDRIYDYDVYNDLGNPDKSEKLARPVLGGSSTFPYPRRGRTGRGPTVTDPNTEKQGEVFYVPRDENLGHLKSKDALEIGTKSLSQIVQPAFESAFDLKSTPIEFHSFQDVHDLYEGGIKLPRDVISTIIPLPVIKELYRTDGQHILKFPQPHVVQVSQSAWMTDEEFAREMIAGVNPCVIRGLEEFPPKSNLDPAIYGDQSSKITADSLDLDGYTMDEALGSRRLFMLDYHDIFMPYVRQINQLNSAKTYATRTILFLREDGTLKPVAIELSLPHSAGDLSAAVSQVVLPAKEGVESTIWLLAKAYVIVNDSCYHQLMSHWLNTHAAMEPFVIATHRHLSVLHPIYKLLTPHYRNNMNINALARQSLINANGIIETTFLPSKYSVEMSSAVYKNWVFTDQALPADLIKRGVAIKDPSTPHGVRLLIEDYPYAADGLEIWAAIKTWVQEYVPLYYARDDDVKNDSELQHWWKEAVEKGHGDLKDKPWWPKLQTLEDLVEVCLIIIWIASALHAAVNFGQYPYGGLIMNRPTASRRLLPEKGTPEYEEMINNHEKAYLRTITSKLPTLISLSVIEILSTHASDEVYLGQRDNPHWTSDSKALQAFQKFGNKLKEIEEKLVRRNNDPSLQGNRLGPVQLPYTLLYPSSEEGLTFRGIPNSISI
Experiment: Lipoxidase test: inhibition of the oxidation of linoleic acid by lipoxidase
Type: biochemical
Conditions: test substrate made with 0.5% by weight solution of material in ethanol; pH 9.0 borate buffer; 234 nm

Substance | LIC (lipoxidase inhibiting capacity, % inhibition) [%]
Dimyrcetol | 16
Tetrahydromuguol | 24
i-Nonyl acetate | 50
i-Nonyl formate | 19
